Holding throughout (type): in vivo
The test system of assay [1] is Cydia pomonella. Put plainly: Insecticidal test against Cydia pomonella. The conditions noted are these: 168 h, 100 ppm water dilution, 0.2 ml on surface of artificial diet, eggs just before hatching, after 7 days. An outline of the steps: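 A 100 ppm aqueous dilution of formulated compound (0.2 ml) was spread onto 3 g artificial diet and air-dried. About 20 near-hatching Cydia pomonella eggs on wax paper were added, four replicates per treatment. Larval mortality was recorded after 7 days.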

The subject of assay [2] is Heliothis virescens. In words: Insecticidal test against Heliothis virescens. As to conditions: 168 h, 100 ppm water dilution, 0.2 ml on surface of artificial diet, second-instar larvae, after 7 days. The procedure:
A water dilution (100 ppm) of a test compound formulation obtained according to Formulation Example 1 was added dropwise at a volume of 0.2 ml and uniformly spread over the surface of an artificial diet having a weight of 3 g, which had been prepared in a 30 ml plastic cup. After air drying, one second-instar larva of Heliothis virescens was set free in each cup. Ten larvae were used for each treatment. After 7 days, the mortality of the larvae was determined.

The subject of assay [3] is Plutella xylostella. In words: Insecticidal test against Plutella xylostella. The conditions noted are these: 96 h, 50 ppm water dilution sprayed over potted cabbages, 25 ml per pot, third-instar larvae, after 4 days, read-out: mortality. How it is done: To a water dilution (50 ppm) of a test compound formulation obtained according to Formulation Example 1 was added a spreading agent (New RINOU available from Nihon Noyaku K.K.) at a dilution ratio of 3000-fold. The dilution was sprayed over potted cabbages at the four to five leaf stage at a volume of 25 ml per pot. After the treated plants were air dried, ten third-instar larvae of Plutella xylostella were set free on each pot. After 4 days, the mortality was determined.

The subject of assay [4] is Spodoptera litura. In words: Insecticidal test against Spodoptera litura. The conditions noted are these: 144 h, 500 ppm water dilution, 2 ml absorbed in 13 g artificial diet, fourth-instar larvae, after 6 days. The procedure:
A 200-fold water dilution (500 ppm) of a test compound formulation obtained according to Formulation Example 1 or 2 was absorbed at a volume of 2 ml in an artificial diet (Insecta LF available from Nihon Nosan K.K.) having a weight of 13 g, which had been prepared in a polyethylene cup having a diameter of 11 cm. Five fourth-instar larvae of Spodoptera litura were set free in the cup. After 6 days, the survival of the larvae was examined to determine the mortality.

In assay [5] the test system is Musca domestica. In words: Insecticidal test against Musca domestica. As to conditions: 24 h, 500 ppm water dilution, 0.7 ml on filter paper with sucrose, female adults, after 1 day, read-out: mortality. The procedure:
In the bottom of a polyethylene cup having a diameter of 5.5 cm was placed a piece of filter paper having the same size. A 200-fold water dilution (500 ppm) of a test compound formulation obtained according to Formulation Example 1 was added dropwise at a volume of 0.7 ml on the filter paper, and about 30 mg of sucrose as a diet was uniformly placed thereon. Ten female adults of houseflies (Musca domestica) were set free in the cup, and the cup was kept covered. After 1 day, the survival of the adults was determined to determine the mortality.

The test system of assay [6] is Tetranychus urticae. In words: Acaricidal test against Tetranychus urticae. More on the design: key: −: almost no damage and completely no surviving mites; ±: slight damage and some few surviving mites; +: rather smaller damage and a rather fewer surviving mites than non-treatment case; ++: same as non-treatment case. The conditions noted are these: 500 ppm water dilution, 15 ml sprayed over brush bean with female adults set free 6 days before; after 8 days. The procedure:
About twenty female adults of Tetranychus urticae were set free on brush bean (Phaseolus vulgaris) in the primary leaf stage, which had been potted in a plastic cup for 7 days after the seeding. After 6 days, a 200-fold water dilution (500 ppm) of a test compound formulation obtained according to Formulation Example 1 or 2 was sprayed at a volume of 15 ml over the plant. After 8 days, each compound was evaluated for acaricidal activity on the following criteria.
−: almost no damage and completely no surviving mites
±: slight damage and some few surviving mites
+: rather smaller damage and a rather fewer surviving mites than non-treatment case
++: same as non-treatment case

For assay [7], the system named is Helicoverpa armigera. Put plainly: Insecticidal test against Helicoverpa armigera. The conditions noted are these: 120 h, 100 ppm water dilution, cotton leaf fragment immersed 10 seconds, third-instar larvae, after 5 days. The procedure:
A cotton leaf fragment (diameter, 5 cm) was immersed for 10 seconds Lin a water dilution (100 ppm) of a test compound formulation obtained according to Formulation Example 1. This fragment was taken out from the dilution, air dried, and placed in a polyethylene cup having a diameter of 5.5 cm. One third-instar larva of Helicoverpa armigera was set free in each cup. Ten larvae were used for each treatment. After 5 days, the mortality of the larvae was determined.

The text below walks through data of US6437184B1, “Oxime compounds, their use, and intermediates for their production” (Sumitomo Chemical Company, Limited, priority 1997, dated 2002).

Broadly, the mortality is the share of the test organisms that died.

Turning to `CC(COCCCCCOc1c(Cl)cc(OCC=C(Cl)Cl)cc1Cl)=NOCC=C(Cl)Cl` [(47), 5-(2,6-dichloro-4-(3,3-dichloro-2-propenyloxy)phenoxy)pentyloxyacetone O-(3,3-dichloro-2-propenyl)oxime], the mortality at 100 µg/mL in assay [1] and in assay [2] was not below 80% throughout. Also, the mortality at 50 µg/mL in assay [3] was not below 80%. In assay [4], the mortality at 500 µg/mL is not below 80%.

`CC(C)(C)ON=CCCOc1c(Cl)cc(OCC=C(Cl)Cl)cc1Cl` [(133), 3-(2,6-dichloro-4-(3,3-dichloro-2-propenyloxy)phenoxy)propionaldehyde O-tert-butyloxime] displayed a mortality at 500 µg/mL in assay [4] not below 80%.

As for `CC(C)(C)ON=CCOCCCOc1c(Cl)cc(OCC=C(Cl)Cl)cc1Cl` [(90), 3-(2,6-dichloro-4-(3,3-dichloro-2-propenyloxy)phenoxy)propyloxyacetaldehyde O-tert-butyloxime], the mortality at 100 µg/mL in assay [1] and in assay [2] was not below 80% each time. The mortality at 50 µg/mL in assay [3] was not below 80%. Besides, in assay [4], the mortality at 500 µg/mL was not below 80%.

Consider `CC(COCCOCCOc1c(Cl)cc(OCC=C(Cl)Cl)cc1Cl)=NOC(C)(C)C` [(203), 2-(2-(2,6-dichloro-4-(3,3-dichloro-2-propenyloxy)phenoxy)-ethoxy)ethoxyacetone O-tert-butyloxime], for which the mortality at 500 µg/mL in assay [4] and in assay [5] was not below 80% throughout.

For the compound `CC(CC(C)C)=NOCCCCCCOc1c(Cl)cc(OCC=C(Cl)Cl)cc1Cl` [(589), 4-methyl-2-pentanone O-(6-(2,6-dichloro-4-(3,3-dichloro-2-propenyloxy)phenoxy)hexyl)oxime], the mortality at 50 µg/mL in assay [3] was not below 80%. Besides, in assay [6], the acaricidal activity entry is on record as ““−” or “±””.

In assay [4], `CC(C)(C)ON=CCOc1c(Cl)cc(OCC=C(Cl)Cl)cc1Cl` [(131), (2,6-dichloro-4-(3,3-dichloro-2-propenyloxy)phenoxy)acetaldehyde O-tert-butyloxime] gave a mortality at 500 µg/mL not below 80%.

On to `CC(C)(C)ON=CCOCCCCOc1c(Cl)cc(OCC=C(Cl)Cl)cc1Cl` [(6), 4-(2,6-dichloro-4-(3,3-dichloro-2-propenyloxy)phenoxy)butyloxyacetaldehyde O-tert-butyloxime], for which the mortality at 100 µg/mL in assay [1] is not below 80%. Also, the acaricidal activity entry in assay [6] was ““−” or “±””. In addition, the mortality at 500 µg/mL in assay [5] is not below 80%.

Compound `CC(C)(C)ON=CCCCCCOc1c(Cl)cc(OCC=C(Cl)Cl)cc1Cl` [(134), 6-(2,6-dichloro-4-(3,3-dichloro-2-propenyloxy)phenoxy)hexanal O-tert-butyloxime] came in with a mortality at 100 µg/mL in assay [2] not below 80%. Besides, the mortality at 50 µg/mL in assay [3] was not below 80%. The compound further displayed a mortality at 500 µg/mL in assay [4] not below 80%.

As to `CC(COCCCCCOc1c(Cl)cc(OCC=C(Cl)Cl)cc1Cl)=NOCC(Cl)(Cl)Cl` [(173), 5-(2,6-dichloro-4-(3,3-dichloro-2-propenyloxy)phenoxy)pentyloxyacetone O-(2,2,2-trichloroethyl)oxime], in assay [6], the acaricidal activity entry is given as ““−” or “±””. For the same compound, the mortality at 500 µg/mL in assay [5] is not below 80%.

Take `CCON=C(CC)c1ccc(OCCCOc2c(Cl)cc(OCC=C(Cl)Cl)cc2Cl)cc1` [(318), 4′-(3-(2,6-dichloro-4-(3,3-dichloro-2-propenyloxy)phenoxy)propyloxy)propiophenone O-ethyloxime]: the acaricidal activity entry in assay [6] is on record as ““−” or “±””. Further, the mortality at 100 µg/mL in assay [7] is not below 80%. The mortality at 500 µg/mL in assay [5] was not below 80%.

Turning to `CC(=NOCCCCCOc1c(Cl)cc(OCC=C(Cl)Cl)cc1Cl)C(C)C` [(582), 3-methyl-2-butanone O-(5-(2,6-dichloro-4-(3,3-dichloro-2-propenyloxy)phenoxy)pentyl)oxime], the acaricidal activity result in assay [6] is given as ““−” or “±””. Also, in assay [7], the mortality at 100 µg/mL is not below 80%.

As to `CC(C)(C)ON=CCOCCCCCCOc1c(Cl)cc(OCC=C(Cl)Cl)cc1Cl` [(91), 6-(2,6-dichloro-4-(3,3-dichloro-2-propenyloxy)phenoxy)hexyloxyacetaldehyde O-tert-butyloxime], the mortality at 100 µg/mL in assay [1], in assay [2] and in assay [7] was not below 80% throughout. In addition, the mortality at 50 µg/mL in assay [3] is not below 80%. The compound also registered a mortality at 500 µg/mL in assay [4] not below 80%.

On to `CCCC=NOCCCCCOc1c(Cl)cc(OCC=C(Cl)Cl)cc1Cl` [(542), butanal O-(5-(2,6-dichloro-4-(3,3-dichloro-2-propenyloxy)phenoxy)pentyl)oxime], for which the acaricidal activity entry in assay [6] is given as ““−” or “±””. For the same compound, the mortality at 500 µg/mL in assay [5] is not below 80%.

In the case of `CCON=C(C)COc1ccc(OCC=CCl)cc1` [(A), 4-(3-chloro-2-propenyloxy)phenoxyacetone O-ethyloxime, reference compound], the mortality at 50 µg/mL in assay [3] was found to be 0%. Moreover, the mortality at 500 µg/mL in assay [4] and in assay [5] was 0% each time. In addition, the acaricidal activity entry in assay [6] was “+”. In assay [7], this compound displayed a mortality at 100 µg/mL of 0%.

Compound `CON=Cc1ccc(OCCCCOc2c(Cl)cc(OCC=C(Cl)Cl)cc2Cl)cc1` [(306), 4-(4-(2,6-dichloro-4-(3,3-dichloro-2-propenyloxy)phenoxy)butyloxy)benzaldehyde O-methyloxime] displayed a mortality at 100 µg/mL in assay [1] not below 80%. In assay [6], the acaricidal activity result is recorded as ““−” or “±””.

With `CC(COCCCCOc1c(Cl)cc(OCC=C(Cl)Cl)cc1Cl)=NOC(C)(C)C` [(103), 4-(2,6-dichloro-4-(3,3-dichloro-2-propenyloxy)phenoxy)butyloxyacetone O-tert-butyloxime], the mortality at 50 µg/mL in assay [3] is not below 80%. The same compound displayed a mortality at 500 µg/mL in assay [4] not below 80%.

On to `ClC(Cl)=CCON=CCOCCCOc1c(Cl)cc(OCC=C(Cl)Cl)cc1Cl` [(33), 3-(2,6-dichloro-4-(3,3-dichloro-2-propenyloxy)phenoxy)propyloxyacetaldehyde O-(3,3-dichloro-2-propenyl)oxime], for which the mortality at 100 µg/mL in assay [1] and in assay [2] was not below 80% in each case. The mortality at 50 µg/mL in assay [3] is not below 80%. The compound further displayed a mortality at 500 µg/mL in assay [4] not below 80%.

With `CCCON=Cc1ccc(COc2c(Cl)cc(OCC=C(Cl)Cl)cc2Cl)cc1` [(327), 4-(2,6-dichloro-4-(3,3-dichloro-2-propenyloxy)phenoxymethyl)benzaldehyde O-propyloxime], the mortality at 50 µg/mL in assay [3] was not below 80%. Moreover, the acaricidal activity entry in assay [6] is listed as ““−” or “±””. This compound showed a mortality at 100 µg/mL in assay [7] not below 80%.

On to `CC(C)CCON=Cc1ccc(Oc2ccccc2)cc1` [(B), 4-phenoxy-benzaldehyde O-(3-methylbutyl)oxime, reference compound], for which the mortality at 500 µg/mL in assay [4] and in assay [5] was 0% in each case. Further, the acaricidal activity entry in assay [6] is listed as “+”.

`ClC(Cl)=CCON=CCOCCCCCCOc1c(Cl)cc(OCC=C(Cl)Cl)cc1Cl` [(34), 6-(2,6-dichloro-4-(3,3-dichloro-2-propenyloxy)phenoxy)hexyloxyacetaldehyde O-(3,3-dichloro-2-propenyl)oxime]: the mortality at 100 µg/mL in assay [1] and in assay [2] was not below 80% each time. In addition, the mortality at 50 µg/mL in assay [3] is not below 80%. Further, in assay [4], the mortality at 500 µg/mL was not below 80%.
